Experimental data as given in patent US20100222396A1 (Novartis AG, priority 2009, published 2010).

Legend:
[1] = target: T1, human orexin 1 receptor (hOx1R) (Homo sapiens, UniProt O43613); assay: Calcium accumulation in cells (FLIPR), antagonism of orexin A, hOx1R; type: cell-based; conditions: for inhibition at 10 µM: measured at a concentration of 10 μM of compound (cells marked ^a); for Kd: cells expressing human orexin 1 receptor, IC50 vs orexin A converted by Cheng and Prusoff correction
T1 construct: expressed in transfected cells
T1 sequence (O43613 1-425): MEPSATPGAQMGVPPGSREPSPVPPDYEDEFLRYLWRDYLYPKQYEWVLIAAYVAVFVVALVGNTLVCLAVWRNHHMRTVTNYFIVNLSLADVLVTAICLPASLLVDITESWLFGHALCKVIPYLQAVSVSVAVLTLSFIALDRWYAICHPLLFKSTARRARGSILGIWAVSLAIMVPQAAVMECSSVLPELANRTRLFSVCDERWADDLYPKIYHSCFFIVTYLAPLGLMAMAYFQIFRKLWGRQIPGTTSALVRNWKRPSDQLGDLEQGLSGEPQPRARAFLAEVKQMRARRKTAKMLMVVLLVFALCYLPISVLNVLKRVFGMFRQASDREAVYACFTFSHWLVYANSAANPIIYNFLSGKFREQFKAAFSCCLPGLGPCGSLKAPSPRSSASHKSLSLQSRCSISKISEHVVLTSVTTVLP
How it was run: (§1)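 Serum-starved receptor-expressing cells were loaded with Fluo-4-AM (2 μM) plus probenecid (0.1 mM) in HEPES buffer, pH 7.4, with 1% BSA, and Ca2+ fluorescence was read on FLIPR. Compounds (10^−9–10^−5 M) were added first, and orexin A was added one hour later to measure antagonism.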

[2] = target: T2, human orexin 2 receptor (hOx2R) (Homo sapiens, UniProt O43614); assay: Calcium accumulation in cells (FLIPR), antagonism of orexin A, hOx2R; type: cell-based; conditions: cells expressing human orexin 2 receptor; IC50 vs orexin A converted by Cheng and Prusoff correction
T2 construct: expressed in transfected cells
T2 sequence (O43614 1-444): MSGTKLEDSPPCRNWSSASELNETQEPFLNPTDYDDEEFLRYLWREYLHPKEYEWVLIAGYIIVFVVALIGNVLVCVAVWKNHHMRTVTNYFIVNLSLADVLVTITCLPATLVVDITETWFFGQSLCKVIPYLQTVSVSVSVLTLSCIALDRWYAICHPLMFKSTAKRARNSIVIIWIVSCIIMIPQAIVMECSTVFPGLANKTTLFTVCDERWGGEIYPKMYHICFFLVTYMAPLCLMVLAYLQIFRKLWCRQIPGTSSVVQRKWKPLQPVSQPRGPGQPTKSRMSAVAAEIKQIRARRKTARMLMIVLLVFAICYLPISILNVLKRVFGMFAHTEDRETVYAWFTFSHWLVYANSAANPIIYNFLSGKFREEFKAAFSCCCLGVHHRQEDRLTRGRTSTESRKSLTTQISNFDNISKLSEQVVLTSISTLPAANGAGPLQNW
How it was run: as §1

[3] = target: T1, human orexin 1 receptor (hOx1R); assay: Radioligand binding assay ([125I]orexin A competition), hOx1R; conditions: CHO or HEK cell membranes, 1 h room temperature
How it was run: (§2)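 Membranes from CHO or HEK cells expressing the human receptor, incubated 1 h at room temperature with […] [125I]orexin A and compound in HEPES pH 7.5 buffer with BSA, MgCl2, CaCl2 and tween.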

[4] = target: T2, human orexin 2 receptor (hOx2R); assay: Radioligand binding assay ([125I]orexin A competition), hOx2R; conditions: CHO or HEK cell membranes, 1 h room temperature
How it was run: as §2

| Compound | inhibition at 10 µM [1] [%] | Kd [2] [nM] | Kd [3] [nM] | Kd [4] [nM] | Kd [1] [nM] |
| --- | --- | --- | --- | --- | --- |
| CN(C(=O)c1ccccc1)[C@H](CCNC(=O)c1cccc2cccnc12)Cc1ccccc1 [Example 49, Quinoline-8-carboxylic acid [(S)-3-(benzoyl-methyl-amino)-4-phenyl-butyl]-amide] | 9 | 414 | 2450 | 1070 |  |
| CN1CCc2cc(C(=O)N(C)[C@H](CCNC(=O)c3ccccn3)Cc3ccccc3)ccc21 [Example 55, 1-Methyl-2,3-dihydro-1H-indole-5-carboxylic acid {(S)-1-benzyl-3-[(pyridine-2-carbonyl)-amino]-propyl}-methyl-amide] |  | 1290 | 75 | 1760 | 1640 |
| Cc1nc2sccn2c1C(=O)NCC[C@H](Cc1ccccc1)N(C)C(=O)c1ccccc1 [Example 33, 6-Methyl-imidazo[2,1-b]thiazole-5-carboxylic acid [(S)-3-(benzoyl-methyl-amino)-4-phenyl-butyl]-amide] |  | 76 | 5730 | 450 | 1960 |
| CN(C(=O)c1ccccc1)[C@H](CCNC(=O)c1nc2ccccc2n1C)Cc1ccccc1 [Example 48, 1-Methyl-1H-benzoimidazole-2-carboxylic acid [(S)-3-(benzoyl-methyl-amino)-4-phenyl-butyl]-amide] |  | 84 | 2820 | 940 | 868 |
| CN(C(=O)c1cccc2ccn(C)c12)[C@H](CCNC(=O)c1ccccn1)Cc1ccccc1 [Example 36, 1-Methyl-1H-indole-7-carboxylic acid {(S)-1-benzyl-3-[(pyridine-2-carbonyl)-amino]-propyl}-methyl-amide] | 37 | 565 | 853 | 468 |  |
| CN(C(=O)c1ccc(C(F)(F)F)cc1)[C@H](CCNC(=O)c1ccccn1)Cc1ccccc1 [Example 73, Pyridine-2-carboxylic acid {(S)-3-[methyl-(4-trifluoromethyl-benzoyl)-amino]-4-phenyl-butyl}-amide] |  | 1310 | > 10000 | > 10000 | 1920 |
| CN(C(=O)c1cccc2ccccc12)[C@H](CCNC(=O)c1nc2ccccc2n1C)Cc1ccc(Cl)cc1 [Example 26, 1-Methyl-1H-benzoimidazole-2-carboxylic acid {(S)-4-(4-chloro-phenyl)-3-[methyl-(naphthalene-1-carbonyl)-amino]-butyl}-amide] |  | 10 | 3280 | 308 | 122 |
| Cc1nc2sccn2c1C(=O)NCC[C@H](Cc1ccccc1)N(C)C(=O)c1ccc2c(c1)OCO2 [Example 82, 6-Methyl-imidazo[2,1-b]thiazole-5-carboxylic acid {(S)-3-[(benzo[1,3]dioxole-5-carbonyl)-methyl-amino]-4-phenyl-butyl}-amide] |  | 2 | 163 | 12 | 963 |
| CN(C(=O)c1cc(C(F)(F)F)cc(C(F)(F)F)c1)C(CCNC(=O)c1ccccc1)Cc1ccccc1 (stereo not shown) [Example 17, N-(3-Benzoylamino-1-benzyl-propyl)-N-methyl-3,5-bis-trifluoromethyl-benzamide] | 36 | 41 | 8790 | 107 |  |
| CN(C(=O)c1ccc2[nH]ccc2c1)[C@H](CCNC(=O)c1ccccn1)Cc1ccccc1 [Example 7, 1H-Indole-5-carboxylic acid {(S)-1-benzyl-3-[(pyridine-2-carbonyl)-amino]-propyl}-methyl-amide] |  | 40 | 7 | 41 | 16 |
| CN(C(=O)c1ccc2c(c1)OC(F)(F)O2)[C@H](CCNC(=O)c1cccn1C)Cc1ccccc1 [Example 107, 1-Methyl-1H-pyrrole-2-carboxylic acid {(S)-3-[(2,2-difluoro-benzo[1,3]dioxole-5-carbonyl)-methyl-amino]-4-phenyl-butyl}-amide] |  | 54 | 2510 | 162 | 1070 |
| COc1cccc(C(=O)N(C)[C@H](CCNC(=O)c2cccn2C)Cc2ccccc2)c1 [Example 103, 1-Methyl-1H-pyrrole-2-carboxylic acid {(S)-3-[(3-methoxy-benzoyl)-methyl-amino]-4-phenyl-butyl}-amide] |  | 8 | 624 | 19 | 1400 |
| CN(C(=O)c1ccc2c(c1)OCO2)[C@H](CCNC(=O)c1cc2ccccc2[nH]1)Cc1ccccc1 [Example 14, 1H-Indole-2-carboxylic acid {(S)-3-[(benzo[1,3]dioxole-5-carbonyl)-methyl-amino]-4-phenyl-butyl}-amide] |  | 106 | 1070 | 521 | 609 |
| Cc1cccc(C(=O)N(C)[C@H](CCNC(=O)c2cccn2C)Cc2ccccc2)c1 [Example 119, 1-Methyl-1H-pyrrole-2-carboxylic acid {(8)-3-[methyl-(3-methyl-benzoyl)-amino]-4-phenyl-butyl}-amide] |  | 4 | 249 | 14 | 534 |
| CN(C(=O)c1ccc2c(c1)OCO2)[C@H](CCNC(=O)c1ccccn1)Cc1ccc(Cl)cc1 [Example 25, Pyridine-2-carboxylic acid [(S)-3-[(benzo[1,3]dioxole-5-carbonyl)-methyl-amino]-4-(4-chloro-phenyl)-butyl]-amide] |  | 36 | 2220 | 308 | 1000 |
| Cc1nc(C(=O)NCC[C@H](Cc2ccccc2)N(C)C(=O)c2ccccc2)c(-c2ccccc2F)s1 [Example 27, 5-(2-Fluoro-phenyl)-2-methyl-thiazole-4-carboxylic acid [(S)-3-(benzoyl-methyl-amino)-4-phenyl-butyl]-amide] |  | 11 | 783 | 337 | 76 |
| CN(C(=O)c1ccccc1)[C@H](CCNC(=O)c1ccc2c(c1)OCO2)Cc1ccccc1 [Example 93, Benzo[1,3]dioxole-5-carboxylic acid [(S)-3-(benzoyl-methyl-amino)-4-phenyl-butyl]-amide] | 30 | 164 | 3110 | 114 |  |
| CCOc1cc(OCC)cc(C(=O)N(C)[C@H](CCNC(=O)c2cccn2C)Cc2ccccc2)c1 [Example 122, 1-Methyl-1H-pyrrole-2-carboxylic acid {(S)-3-[(3,5-diethoxy-benzoyl)-methyl-amino]-4-phenyl-butyl}-amide] |  | 24 | 333 | 21 | 773 |
| CN(C(=O)c1cccc2cc[nH]c12)[C@H](CCNC(=O)c1ccccn1)Cc1ccccc1 [Example 38, 1H-Indole-7-carboxylic acid {(S)-1-benzyl-3-[(pyridine-2-carbonyl)-amino]-propyl}-methyl-amide] |  | 162 | 86 | 590 | 35 |
| CN(C(=O)c1ccc2[nH]ccc2c1)[C@H](CCNC(=O)c1nc2ccccc2n1C)Cc1ccccc1 [Example 81, 1-Methyl-1H-benzoimidazole-2-carboxylic acid {(S)-3-[(1H-indole-5-carbonyl)-methyl-amino]-4-phenyl-butyl}-amide] |  | 13 | 6 | 23 | 12 |
| CCN(C(=O)c1ccc2c(c1)OCO2)[C@H](CCNC(=O)c1ccccn1)Cc1ccccc1 [Example 8, Pyridine-2-carboxylic acid {(S)-3-[(benzo[1,3]dioxole-5-carbonyl)-ethyl-amino]-4-phenyl-butyl}-amide] |  | 32 | 270 | 46 | 211 |
| CCN(C(=O)c1cc(C(F)(F)F)cc(C(F)(F)F)c1)[C@H](CCNC(=O)c1ccccn1)Cc1ccccc1 [Example 10, Pyridine-2-carboxylic acid {(S)-3-[(3,5-bis-trifluoromethyl-benzoyl)-ethyl-amino]-4-phenyl-butyl}-amide] |  | 27 | 3270 | 59 | 1360 |
